Data published in patent US11576865B2, “Sustained-release dosage forms of ruxolitinib” (Incyte Corporation, priority 2012, dated 2023).

Experiments:
[1] = Open-label study of immediate-release ruxolitinib phosphate tablets in MF patients, pharmacokinetics; assay type: in vivo, human; conditions: dose from 10 mg to 100 mg
Method: This was an open-label study exploring the safety, tolerability, and efficacy of ruxolitinib, administered orally to patients with primary myelofibrosis (PMF) and post polycythemia vera/essential thrombocythemia myelofibrosis (Post-PV/ET MF). The study was comprised of 3 parts: Part 1-dose escalation and expansion, bid dosing, Part 2-alternative dosing schedules (A, B and C), and Part 3-three independent patient groups (Group I, II and III). Eight dose regimens were evaluated in 3 parts. The Part 1 evaluated two dose levels of 25 mg bid and 50 mg bid, Part 2 studied five dose regimens of 10 mg bid, 25 mg bid, 25 mg qd, 50 mg qd and 100 mg qd and Part 3 assessed six dose regimens of 10 mg bid, 15 mg bid, 25 mg bid, 50 mg qd, 100 mg qd and 200 mg qd. A total of 154 subjects were enrolled; 32 subjects enrolled in Part 1, 29 subjects in Part 2 and 93 subjects in Part 3. See Table 4b (qd=once per day; bid=twice per day).
In Part 1, the pharmacokinetic blood samples were collected at pre-dose and 0.5, 1, 1.5, 2, 4, 6 and 9 hours post-dose on Days 1 and 15 of Cycle 1 and at pre-dose on Day 1 of Cycles 2 and 3, using lavender top (K3EDTA) Vacutainer® tubes. […]
Plasma samples were shipped to Incyte Corporation and assayed by a validated, GLP, LC/MS/MS method with a linear range of 1 to 1000 nM and a limit of quantification of 1 nM. […]

[2] = tested on: patients with myelofibrosis (MF); assay: Phase 2 sustained-release clinical trial, haematology and adverse events; conditions: human, in vivo, 16 weeks
Method: A Phase 2 clinical trial was carried out in patients with myelofibrosis (MF). A total of 41 subjects were enrolled, and spleen volume and total symptom scores were obtained at baseline. Tablets of sustained-release formulation SR-2 (see Example 1) were administered to fasted patients. All patients were treated with 25 mg once daily doses for 8 weeks. After 8 weeks, depending upon the clinical response, the investigator was allowed to (a) maintain the same dose of SR-2, (b) increase the dose to 50 mg once daily, (c) increase the dose to alternating doses of 25 mg and 50 mg, dosed once daily, or (d) switch to treatment with the immediate release formulation.
Data relating to mean platelet count and mean hemoglobin levels (Hgb) is presented below in Table 3 together with comparative data from the COMFORT-I study. […] Data is shown as mean±SD.
Data for adverse events relating to anemia, thrombocytopenia, neutropenia, and all Grade 3 or higher adverse events are compared for the sustained-release and COMFORT-I (immediate-release) studies (see Example 3 and Comparative Example A for descriptions of the studies) in Table 6a. Adverse events are graded according to CTCAE criteria which can be found online at ctep.cancer.gov/protocolDevelopment/electronic_applications/ctc.htm or evs.nci.nih.gov/ftp1/CTCAE/CTCAE_4.03_2010-06-14_QuickReference_5×7.pdf. A Grade 3 adverse event generally corresponds to a reaction that is severe or medically significant, but not immediately life-threatening where hospitalization or prolongation of hospitalization is indicated and where the reaction is disabling to the extent of limiting self care. Higher Grades are 4 (life-threatening requiring urgent intervention) and 5 (death). For anemia, Grade 3 corresponds to Hgb<8.0 g/dL; <4.9 mmol/L; <80 g/L, where a transfusion is indicated. For thrombocytopenia (decreased platelet count), Grade 3 corresponds to <50,000-25,000/mm^3; <50.0-25.0×10^9/L. The sustained-release data was evaluated for patients over the course of 16 weeks. Mean duration of exposure to ruxolitinib in the COMFORT-I was approximately 242 days. Typically, the majority of hematologic adverse events occur within the first few months of therapy as observed in the COMFORT-I study.
The sustained-release data was evaluated for patients over the course of 16 weeks. Mean duration of exposure to ruxolitinib in the COMFORT-I study was approximately 242 days. The vast majority of hematologic adverse events occur within the first few months of therapy as observed in the COMFORT-I study. […] Additionally, the severity of the adverse events is lesser in the sustained-release study.

[3] = tested on: patients with intermediate-2 or high risk myelofibrosis; conditions: cited from earlier work
[4] = tested on: Myelofibrosis patients; conditions: COMFORT-II, 48 weeks (primary end point); cited from earlier work
[5] = cited from earlier work
[6] = tested on: patients with intermediate-2 or high risk myelofibrosis; conditions: cited from earlier work; remark: listed apart in the source
[7] = COMFORT I immediate-release, n 129
[8] = COMFORT I immediate-release, n 139
[9] = COMFORT I immediate-release, n 140
[10] = COMFORT I immediate-release, n 148
[11] = COMFORT I, immediate release, N = 155, maximum severity
[12] = COMFORT I, immediate release, N = 155, treatment-related, maximum severity
[13] = COMFORT I, immediate release, N = 155, treatment-related
[14] = COMFORT I, immediate release, N = 155
[15] = COMFORT I, mean exposure approximately 242 days
[16] = COMFORT-I Study (active), Week 12, mean total daily dose 30.4 mg, mean ± SD

SMILES: N#CC[C@H](C1CCCC1)n1cc(-c2ncnc3[nH]ccc23)cn1 [Ruxolitinib, (3R)-3-cyclopentyl-3-[4-(7H-pyrrolo[2,3-d]pyrimidin-4-yl)pyrazol-1-yl]propanenitrile]
- dose proportionality of mean Cmax and AUC [1]: increased approximately linearly proportional to dose
- % of Subjects With Any Adverse Events, Any severity [2]: (78.0) %
- % of Subjects with Anaemia, Any severity [2]: (4.9) %
- % of Subjects with Blood and lymphatic system disorders, Any severity [2]: (19.5) %
- % of Subjects with Thrombocytopenia, Any severity [2]: (14.6) %
- Number of Subjects With Any Adverse Events, Any severity [2]: 32
- Number of Subjects With Any Adverse Events, LT (life threatening) [2]: 0
- Number of Subjects With Any Adverse Events, Mi (mild) [2]: 16
- Number of Subjects With Any Adverse Events, Mo (moderate) [2]: 9
- Number of Subjects With Any Adverse Events, Se (severe) [2]: 7
- Number of Subjects with Anaemia, Any severity [2]: 2
- Number of Subjects with Anaemia, LT (life threatening) [2]: 0
- Number of Subjects with Anaemia, Mi (mild) [2]: 0
- Number of Subjects with Anaemia, Mo (moderate) [2]: 2
- Number of Subjects with Anaemia, Se (severe) [2]: 0
- Number of Subjects with Blood and lymphatic system disorders, Any severity [2]: 8
- Number of Subjects with Blood and lymphatic system disorders, LT (life threatening) [2]: 0
- Number of Subjects with Blood and lymphatic system disorders, Mi (mild) [2]: 3
- Number of Subjects with Blood and lymphatic system disorders, Mo (moderate) [2]: 4
- Number of Subjects with Blood and lymphatic system disorders, Se (severe) [2]: 1
- Number of Subjects with Thrombocytopenia, Any severity [2]: 6
- Number of Subjects with Thrombocytopenia, LT (life threatening) [2]: 0
- Number of Subjects with Thrombocytopenia, Mi (mild) [2]: 3
- Number of Subjects with Thrombocytopenia, Mo (moderate) [2]: 2
- Number of Subjects with Thrombocytopenia, Se (severe) [2]: 1
- Total Symptom Score, Percent Change from Baseline To Week 24, Max [3, 7]: 108.3
- Total Symptom Score, Percent Change from Baseline To Week 24, Mean [3, 7]: −46.1
- Total Symptom Score, Percent Change from Baseline To Week 24, Median [3, 7]: −56.2
- Total Symptom Score, Percent Change from Baseline To Week 24, Min [3, 7]: −100.0
- Spleen Volume, Percent Change from Baseline To Week 24, Max [3, 8]: 25.1%
- Spleen Volume, Percent Change from Baseline To Week 24, Mean [3, 8]: −31.6%
- Spleen Volume, Percent Change from Baseline To Week 24, Median [3, 8]: −33.0%
- Spleen Volume, Percent Change from Baseline To Week 24, Min [3, 8]: −75.9%
- Total Symptom Score, Percent Change from Baseline To Week 16, Max [3, 9]: 292.5
- Total Symptom Score, Percent Change from Baseline To Week 16, Mean [3, 9]: −40.5
- Total Symptom Score, Percent Change from Baseline To Week 16, Median [3, 9]: −51.1
- Total Symptom Score, Percent Change from Baseline To Week 16, Min [3, 9]: −100.0
- Spleen Volume, Percent Change from Baseline To Week 12, Max [3, 10]: 3.8%
- Spleen Volume, Percent Change from Baseline To Week 12, Mean [3, 10]: −32.0%
- Spleen Volume, Percent Change from Baseline To Week 12, Median [3, 10]: −31.7%
- Spleen Volume, Percent Change from Baseline To Week 12, Min [3, 10]: −74.4%
- proportion of patients with a reduction of 50% or more in the total symptom score ([3]; COMFORT-I, baseline to week 24): 45.9%
- proportion of patients with a reduction of 35% or more in spleen volume ([3]; COMFORT-I, week 24 (primary end point)): 41.9%
- patients with at least a 35% reduction in spleen volume from baseline [4]: 28%
- half-life ([5]; human, immediate-release, Shi et al.): about 3 hours
- Bioavailability ([5]; oral): 70-80%
- Number of Subjects With Any Adverse Events, FT (fatal) [6, 11]: 9
- Number of Subjects With Any Adverse Events, LT (life threatening) [6, 11]: 9
- Number of Subjects With Any Adverse Events, Mi (mild) [6, 11]: 20
- Number of Subjects With Any Adverse Events, Mo (moderate) [6, 11]: 58
- Number of Subjects With Any Adverse Events, Se (severe) [6, 11]: 55
- Number of Subjects with Anaemia, FT (fatal) [6, 12]: 0
- Number of Subjects with Anaemia, LT (life threatening) [6, 12]: 8
- Number of Subjects with Anaemia, Mi (mild) [6, 12]: 4
- Number of Subjects with Anaemia, Mo (moderate) [6, 12]: 20
- Number of Subjects with Anaemia, Se (severe) [6, 12]: 16
- Number of Subjects with Blood and lymphatic system disorders, FT (fatal) [6, 12]: 0
- Number of Subjects with Blood and lymphatic system disorders, LT (life threatening) [6, 12]: 10
- Number of Subjects with Blood and lymphatic system disorders, Mi (mild) [6, 12]: 20
- Number of Subjects with Blood and lymphatic system disorders, Mo (moderate) [6, 12]: 28
- Number of Subjects with Blood and lymphatic system disorders, Se (severe) [6, 12]: 27
- Number of Subjects with Thrombocytopenia, FT (fatal) [6, 12]: 0
- Number of Subjects with Thrombocytopenia, LT (life threatening) [6, 12]: 2
- Number of Subjects with Thrombocytopenia, Mi (mild) [6, 12]: 21
- Number of Subjects with Thrombocytopenia, Mo (moderate) [6, 12]: 19
- Number of Subjects with Thrombocytopenia, Se (severe) [6, 12]: 11
- % of Subjects with Anaemia, Any severity [6, 13]: 31.0%
- % of Subjects with Blood and lymphatic system disorders, Any severity [6, 13]: 54.8%
- % of Subjects with Thrombocytopenia, Any severity [6, 13]: 34.2%
- Number of Subjects with Anaemia, Any severity [6, 13]: 48
- Number of Subjects with Blood and lymphatic system disorders, Any severity [6, 13]: 85
- Number of Subjects with Thrombocytopenia, Any severity [6, 13]: 53
- % of Subjects With Any Adverse Events, Any severity [6, 14]: 97.4%
- Number of Subjects With Any Adverse Events, Any severity [6, 14]: 151
- Percent of Patients with All ≥ Grade 3 Adverse Events [6, 15]: 47.1%
- Percent of Patients with Grade 3 or Higher Anemia [6, 15]: 15.5%
- Percent of Patients with Grade 3 or Higher Neutropenia [6, 15]: 1.3%
- Percent of Patients with Grade 3 or Higher Thrombocytopenia [6, 15]: 8.4%
- Mean change from baseline Hgb [6, 16]: -13.2 ± 15.5 g/L
- Mean change from baseline platelet count [6, 16]: −131 ± 143 ×10^9/L
